Activity calls are given as the source filed them.
What was measured:
[1] = molecular target: T1, Alkaline phosphatase, tissue-nonspecific isozyme (Homo sapiens, UniProt P05186); assay: inhibition of tissue-nonspecific alkaline phosphatase – biochemical, dose response (AID 488882); assay type: functional
T1 sequence (P05186 whole entry): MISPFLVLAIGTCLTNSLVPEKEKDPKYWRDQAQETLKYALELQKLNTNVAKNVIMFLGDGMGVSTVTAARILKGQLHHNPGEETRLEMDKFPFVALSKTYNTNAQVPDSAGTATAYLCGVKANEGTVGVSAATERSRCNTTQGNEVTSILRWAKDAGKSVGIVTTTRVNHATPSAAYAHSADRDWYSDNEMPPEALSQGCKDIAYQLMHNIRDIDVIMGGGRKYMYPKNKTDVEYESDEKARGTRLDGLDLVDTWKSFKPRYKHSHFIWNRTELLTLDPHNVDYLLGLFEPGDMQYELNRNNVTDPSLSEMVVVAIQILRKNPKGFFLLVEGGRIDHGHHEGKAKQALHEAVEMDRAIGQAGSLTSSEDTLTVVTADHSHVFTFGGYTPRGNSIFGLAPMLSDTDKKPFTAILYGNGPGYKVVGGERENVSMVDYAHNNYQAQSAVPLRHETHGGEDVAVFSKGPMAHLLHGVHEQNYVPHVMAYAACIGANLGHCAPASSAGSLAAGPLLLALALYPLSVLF

[2] = molecular target: Intestinal-type alkaline phosphatase (Mus musculus, UniProt P24822); assay: PubChem AID 488875; assay type: functional
[3] = molecular target: T2, Intestinal-type alkaline phosphatase (Homo sapiens, UniProt P09923); assay: Dose Response confirmation of uHTS hits from a small molecule inhibitors of human intestinal alkaline phosphatase via a luminescent assay. [Related pubchem assays (depositor defined):AID2544, AID2574]; assay type: functional
T2 sequence (P09923 whole entry): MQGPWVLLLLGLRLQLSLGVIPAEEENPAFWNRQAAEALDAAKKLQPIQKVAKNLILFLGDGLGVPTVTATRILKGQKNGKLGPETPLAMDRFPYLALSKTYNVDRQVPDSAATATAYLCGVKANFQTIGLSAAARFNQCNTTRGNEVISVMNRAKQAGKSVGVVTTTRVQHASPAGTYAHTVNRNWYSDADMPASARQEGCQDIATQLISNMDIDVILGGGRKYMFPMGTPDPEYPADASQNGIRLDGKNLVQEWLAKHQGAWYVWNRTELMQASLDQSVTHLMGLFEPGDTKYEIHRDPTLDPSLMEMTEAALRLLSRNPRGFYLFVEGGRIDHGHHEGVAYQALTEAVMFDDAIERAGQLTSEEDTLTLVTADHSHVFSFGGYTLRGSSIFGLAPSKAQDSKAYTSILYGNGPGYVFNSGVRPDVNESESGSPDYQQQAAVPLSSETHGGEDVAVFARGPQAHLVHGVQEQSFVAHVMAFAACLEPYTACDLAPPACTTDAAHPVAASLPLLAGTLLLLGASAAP

[4] = molecular target: T2, Intestinal-type alkaline phosphatase; assay: inhibition of human intestinal alkaline phosphatase – biochemical, luminescent, uHTS hits, set 2, dose response (AID 488793); assay type: functional
ORF 73 = ORF 73 (Human herpesvirus 8, UniProt O40947); assay: KSHV LANA DNA-binding disruption – biochemical, fluorescence polarization, cherry-picked samples, dose response (AID 504725); set-up: species or system Human gammaherpesvirus 8;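 note: fluorescence polarization of a labeled DNA duplex reporting LANA DNA binding; potency is for inhibitors that block LANA binding to the DNA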
[5] = molecular target: Female germline-specific tumor suppressor gld-1 (Caenorhabditis elegans, UniProt Q17339); assay: blockers of GLD-1/TGE RNA complex formation – biochemical, fluorescence polarization, C. elegans, dose response (AID 2802);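 note: fluorescence polarization of labeled TGE RNA bound by purified gld-1 protein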
Protein Rev = Protein Rev (Human immunodeficiency virus type 1 group M subtype B (isolate HXB2)(HIV-1), UniProt P04618); assay: blockers of HIV Rev/RRE RNA complex – biochemical, fluorescence polarization, HIV-1, dose response (AID 434976); set-up: species or system Human immunodeficiency virus 1
Chain of Protein Rev (P04618 whole entry): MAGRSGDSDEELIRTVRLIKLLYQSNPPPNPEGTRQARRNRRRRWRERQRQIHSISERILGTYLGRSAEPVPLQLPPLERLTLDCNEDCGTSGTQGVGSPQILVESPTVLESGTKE

[6] = molecular target: UDP-galactopyranose mutase (Mycobacterium tuberculosis, UniProt P9WIQ1); assay: Inhibitors of Mycobacterium tuberculosis UDP-galactopyranose mutase (UGM) enzyme Measured in Biochemical System Using Plate Reader - 2105-02_Inhibitor_Dose_CherryPick_Activity. [Related pubchem assays (depositor defined):AID504439]
Keap1/Nrf2 = Keap1/Nrf2 (Homo sapiens, UniProt Q14145); assay: disruptors of Keap1 binding to Nrf2 peptide – biochemical, fluorescence polarization, cherry-picked samples, dose response (AID 588683)
[7] = molecular target: T3, Dual specificity protein phosphatase 3 (Homo sapiens, UniProt P51452); assay: VHR1 phosphatase inhibitors, biochemical (AID 1878)
T3 sequence (P51452 whole entry): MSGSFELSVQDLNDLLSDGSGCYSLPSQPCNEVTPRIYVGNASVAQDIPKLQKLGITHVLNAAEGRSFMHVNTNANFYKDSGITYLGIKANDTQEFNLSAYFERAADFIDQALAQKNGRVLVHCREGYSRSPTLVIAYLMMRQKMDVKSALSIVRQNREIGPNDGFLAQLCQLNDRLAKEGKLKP

[8] = molecular target: T4, Voltage-gated N-type calcium channel alpha-1B subunit/Amyloid beta A4 precursor protein-binding family A member 1 (Homo sapiens, UniProt Q00975+Q02410); assay type: protein assay
T4 sequence (Q00975 whole entry): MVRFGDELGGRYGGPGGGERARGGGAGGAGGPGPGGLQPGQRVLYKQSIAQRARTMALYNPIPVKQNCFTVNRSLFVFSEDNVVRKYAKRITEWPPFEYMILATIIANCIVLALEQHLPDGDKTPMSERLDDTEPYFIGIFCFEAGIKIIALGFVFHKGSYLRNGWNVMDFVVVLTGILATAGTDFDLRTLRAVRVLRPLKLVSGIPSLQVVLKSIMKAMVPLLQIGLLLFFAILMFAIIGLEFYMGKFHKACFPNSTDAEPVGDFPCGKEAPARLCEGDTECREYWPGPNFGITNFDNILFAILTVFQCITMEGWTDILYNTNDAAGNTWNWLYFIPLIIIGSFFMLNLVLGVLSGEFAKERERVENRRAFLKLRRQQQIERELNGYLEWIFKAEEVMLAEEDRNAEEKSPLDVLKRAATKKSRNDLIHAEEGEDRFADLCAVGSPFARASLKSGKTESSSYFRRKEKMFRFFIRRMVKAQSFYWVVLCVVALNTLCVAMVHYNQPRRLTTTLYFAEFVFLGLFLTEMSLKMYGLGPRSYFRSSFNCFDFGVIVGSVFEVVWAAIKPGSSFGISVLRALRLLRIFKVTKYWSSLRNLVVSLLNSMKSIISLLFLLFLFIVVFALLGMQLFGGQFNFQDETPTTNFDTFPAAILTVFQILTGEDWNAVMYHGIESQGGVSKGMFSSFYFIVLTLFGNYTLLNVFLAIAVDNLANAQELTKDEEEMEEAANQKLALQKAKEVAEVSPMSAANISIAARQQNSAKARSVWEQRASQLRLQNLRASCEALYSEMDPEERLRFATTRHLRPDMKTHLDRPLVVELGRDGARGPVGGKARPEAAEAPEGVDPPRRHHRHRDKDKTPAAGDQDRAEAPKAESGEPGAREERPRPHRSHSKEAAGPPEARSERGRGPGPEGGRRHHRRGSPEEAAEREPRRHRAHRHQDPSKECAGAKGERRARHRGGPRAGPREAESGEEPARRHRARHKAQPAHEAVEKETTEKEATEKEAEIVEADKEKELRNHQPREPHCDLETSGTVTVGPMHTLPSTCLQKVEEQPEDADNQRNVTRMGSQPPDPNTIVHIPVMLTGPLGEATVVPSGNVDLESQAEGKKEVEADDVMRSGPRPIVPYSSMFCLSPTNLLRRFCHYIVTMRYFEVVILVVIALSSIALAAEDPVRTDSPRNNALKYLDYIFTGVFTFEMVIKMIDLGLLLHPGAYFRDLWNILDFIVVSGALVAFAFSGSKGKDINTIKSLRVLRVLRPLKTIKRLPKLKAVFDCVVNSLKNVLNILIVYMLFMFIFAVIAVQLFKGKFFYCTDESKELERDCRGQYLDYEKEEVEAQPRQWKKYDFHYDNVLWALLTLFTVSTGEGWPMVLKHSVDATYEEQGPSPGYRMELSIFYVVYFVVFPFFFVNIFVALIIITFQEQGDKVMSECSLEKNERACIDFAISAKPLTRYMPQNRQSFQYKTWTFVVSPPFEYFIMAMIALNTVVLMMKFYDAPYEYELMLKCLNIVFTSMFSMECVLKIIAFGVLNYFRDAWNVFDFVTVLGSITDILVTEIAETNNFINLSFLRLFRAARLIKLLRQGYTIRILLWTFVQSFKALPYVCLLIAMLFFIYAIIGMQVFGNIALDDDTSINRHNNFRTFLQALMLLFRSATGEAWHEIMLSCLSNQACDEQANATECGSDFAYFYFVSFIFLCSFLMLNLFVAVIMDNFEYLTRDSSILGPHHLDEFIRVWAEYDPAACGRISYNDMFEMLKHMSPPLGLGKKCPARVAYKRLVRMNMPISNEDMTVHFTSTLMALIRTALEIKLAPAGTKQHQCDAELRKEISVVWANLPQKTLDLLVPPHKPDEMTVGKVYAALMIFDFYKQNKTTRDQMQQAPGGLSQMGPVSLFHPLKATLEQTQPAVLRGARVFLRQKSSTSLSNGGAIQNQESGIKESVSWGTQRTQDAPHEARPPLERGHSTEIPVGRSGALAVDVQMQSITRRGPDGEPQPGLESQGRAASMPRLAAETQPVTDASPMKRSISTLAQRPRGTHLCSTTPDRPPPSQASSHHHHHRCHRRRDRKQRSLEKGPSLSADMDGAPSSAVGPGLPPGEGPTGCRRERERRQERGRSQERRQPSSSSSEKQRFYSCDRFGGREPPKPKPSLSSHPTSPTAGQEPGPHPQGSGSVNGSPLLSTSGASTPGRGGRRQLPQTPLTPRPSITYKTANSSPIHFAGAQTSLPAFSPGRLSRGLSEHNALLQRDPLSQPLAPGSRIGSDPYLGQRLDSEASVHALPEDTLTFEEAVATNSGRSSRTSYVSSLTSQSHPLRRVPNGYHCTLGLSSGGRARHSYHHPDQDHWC
T4 sequence (Q02410 whole entry): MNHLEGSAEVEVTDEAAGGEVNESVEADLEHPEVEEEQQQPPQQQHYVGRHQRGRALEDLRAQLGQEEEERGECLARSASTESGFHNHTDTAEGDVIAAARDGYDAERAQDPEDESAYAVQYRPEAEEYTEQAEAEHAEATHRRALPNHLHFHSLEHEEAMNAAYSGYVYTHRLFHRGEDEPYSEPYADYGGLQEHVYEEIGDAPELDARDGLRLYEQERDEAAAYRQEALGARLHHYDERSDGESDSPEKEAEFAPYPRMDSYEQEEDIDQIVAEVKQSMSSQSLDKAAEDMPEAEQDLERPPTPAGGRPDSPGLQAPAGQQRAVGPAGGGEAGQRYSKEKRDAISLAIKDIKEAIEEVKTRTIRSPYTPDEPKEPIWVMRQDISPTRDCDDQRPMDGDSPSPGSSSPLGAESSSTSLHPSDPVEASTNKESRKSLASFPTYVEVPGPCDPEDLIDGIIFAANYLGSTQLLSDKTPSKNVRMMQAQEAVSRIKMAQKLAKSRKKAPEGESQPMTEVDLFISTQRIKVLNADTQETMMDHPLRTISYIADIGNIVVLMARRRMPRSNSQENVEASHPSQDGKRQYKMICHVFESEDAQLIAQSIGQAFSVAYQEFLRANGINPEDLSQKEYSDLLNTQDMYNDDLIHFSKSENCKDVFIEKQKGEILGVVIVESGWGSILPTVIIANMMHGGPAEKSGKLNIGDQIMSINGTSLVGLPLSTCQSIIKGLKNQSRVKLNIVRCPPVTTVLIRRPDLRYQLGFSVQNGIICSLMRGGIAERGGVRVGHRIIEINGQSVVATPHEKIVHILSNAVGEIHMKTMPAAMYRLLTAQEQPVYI

[9] = molecular target: T3, Dual specificity protein phosphatase 3; assay: VHR1 phosphatase inhibitors, primary screen, biochemical, absorbance, uHTS (AID 1654)
[10] = molecular target: T5, Tyrosine-protein phosphatase non-receptor type 22 (Homo sapiens, UniProt Q9Y2R2); assay: SAR LYP1 Fluorescent Assay using OMFP substrate for In Vitro dose response studies - Set 3. [Related pubchem assays (depositor defined):AID1779, AID1784, AID2140, AID2686]; assay type: functional
T5 sequence (Q9Y2R2 whole entry): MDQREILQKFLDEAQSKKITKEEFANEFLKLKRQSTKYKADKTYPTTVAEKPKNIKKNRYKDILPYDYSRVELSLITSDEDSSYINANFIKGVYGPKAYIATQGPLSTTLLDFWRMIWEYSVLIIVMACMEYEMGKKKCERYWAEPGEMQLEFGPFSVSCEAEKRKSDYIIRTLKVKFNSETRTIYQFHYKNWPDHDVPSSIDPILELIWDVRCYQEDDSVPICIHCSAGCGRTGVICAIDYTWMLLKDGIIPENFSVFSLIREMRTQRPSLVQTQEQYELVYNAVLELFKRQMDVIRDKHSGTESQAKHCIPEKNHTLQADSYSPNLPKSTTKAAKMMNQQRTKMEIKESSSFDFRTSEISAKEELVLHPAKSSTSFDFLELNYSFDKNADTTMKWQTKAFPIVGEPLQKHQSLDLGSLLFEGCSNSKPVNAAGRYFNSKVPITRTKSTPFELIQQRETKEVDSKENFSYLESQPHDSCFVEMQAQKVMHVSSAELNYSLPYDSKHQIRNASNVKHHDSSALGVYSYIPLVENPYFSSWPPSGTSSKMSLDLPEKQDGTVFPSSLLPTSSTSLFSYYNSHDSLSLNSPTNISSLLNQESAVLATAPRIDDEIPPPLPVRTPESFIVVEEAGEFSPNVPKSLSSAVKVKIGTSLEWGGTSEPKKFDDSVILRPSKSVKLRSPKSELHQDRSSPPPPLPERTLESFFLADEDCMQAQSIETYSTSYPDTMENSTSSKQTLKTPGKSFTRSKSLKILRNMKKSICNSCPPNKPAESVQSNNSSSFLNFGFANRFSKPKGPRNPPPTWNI

[11] = molecular target: Glyceraldehyde-3-phosphate dehydrogenase (Homo sapiens, UniProt P04406)
[12] = molecular target: T4, Voltage-gated N-type calcium channel alpha-1B subunit/Amyloid beta A4 precursor protein-binding family A member 1; assay type: protein assay; remark: listed apart in the source
NS3 = NS3 (Hepatitis C virus, UniProt A3EZJ3); assay: PubChem AID 2173; set-up: species or system Hepacivirus hominis
[13] = molecular target: Dual specificity protein phosphatase 6 (Rattus norvegicus, UniProt Q64346); assay: inhibition of rat DUSP6 enzyme activity – biochemical, in vitro, primary screen (AID 425)
Chain of Dual specificity protein phosphatase 6 (Q64346 whole entry): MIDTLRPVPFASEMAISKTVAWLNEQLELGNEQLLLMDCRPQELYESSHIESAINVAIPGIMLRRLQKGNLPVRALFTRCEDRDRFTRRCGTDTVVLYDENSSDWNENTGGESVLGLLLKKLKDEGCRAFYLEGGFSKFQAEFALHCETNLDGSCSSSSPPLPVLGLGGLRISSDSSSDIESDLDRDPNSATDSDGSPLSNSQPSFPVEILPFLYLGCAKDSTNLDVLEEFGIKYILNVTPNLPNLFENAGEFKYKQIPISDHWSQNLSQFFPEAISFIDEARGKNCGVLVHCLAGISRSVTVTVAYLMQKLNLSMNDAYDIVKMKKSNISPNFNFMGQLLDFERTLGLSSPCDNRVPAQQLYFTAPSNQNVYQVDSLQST

[14] = molecular target: T5, Tyrosine-protein phosphatase non-receptor type 22; assay: inhibition of lymphoid tyrosine phosphatase LYP – biochemical, pCAP fluorogenic substrate, fluorescence, set 3, SAR follow-up (AID 449727); assay type: functional
[15] = molecular target: Tyrosine-protein phosphatase non-receptor type 12 (Homo sapiens, UniProt Q05209); assay: SAR Selectivity Analysis of small molecule inhibitors of PEST using pCAP in a fluorescence assay. [Related pubchem assays (depositor defined):AID1779, AID1784, AID2135]; assay type: functional
[16] = molecular target: T6, Tyrosine-protein phosphatase non-receptor type 7 (Homo sapiens, UniProt P35236); assay: inhibition of hematopoietic tyrosine phosphatase HePTP – biochemical, set 2, SAR follow-up (AID 449736); assay type: functional
T6 sequence (P35236 whole entry): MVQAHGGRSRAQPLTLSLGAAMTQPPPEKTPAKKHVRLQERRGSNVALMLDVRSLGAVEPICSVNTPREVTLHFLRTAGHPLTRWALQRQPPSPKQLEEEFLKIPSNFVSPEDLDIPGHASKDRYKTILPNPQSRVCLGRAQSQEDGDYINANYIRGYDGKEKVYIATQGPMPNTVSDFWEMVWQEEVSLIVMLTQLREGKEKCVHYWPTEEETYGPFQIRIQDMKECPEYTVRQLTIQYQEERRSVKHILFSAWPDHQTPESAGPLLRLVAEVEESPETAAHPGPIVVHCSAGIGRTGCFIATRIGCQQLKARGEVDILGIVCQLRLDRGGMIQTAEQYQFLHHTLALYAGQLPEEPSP

[17] = bead-based luminescence quenchers, dual-tagged ARNT – biochemical, AlphaScreen, cherry-pick, artefact control for ARNT-TACC3 interaction inhibitor project, dose response (AID 651705); assay type: functional;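 note: AlphaScreen bead proximity signal that flags compounds interfering with the detection technology; potency reflects signal decrease which marks the compound as an assay artifact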
[18] = molecular target: Lysine-specific demethylase 4C (Homo sapiens, UniProt Q9H3R0); assay: inhibition of JMJD2C H3K9me3 demethylation – biochemical, DELFIA europium, cherry-picked samples, dose response (AID 488835); assay type: functional
[19] = molecular target: Lysine-specific demethylase 4A (Homo sapiens, UniProt O75164); assay: inhibition of JMJD2A H3K9me3 demethylation – biochemical, DELFIA europium, cherry-picked samples, selectivity assay for GASC-1 inhibitor project, dose response (AID 488840)
Cytochrome P450 2D6 [20] = molecular target: T7, Cytochrome P450 2D6 (Homo sapiens, UniProt P10635);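 note: CYP2D6 member of a cytochrome P450 panel assay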
T7 sequence (P10635 whole entry): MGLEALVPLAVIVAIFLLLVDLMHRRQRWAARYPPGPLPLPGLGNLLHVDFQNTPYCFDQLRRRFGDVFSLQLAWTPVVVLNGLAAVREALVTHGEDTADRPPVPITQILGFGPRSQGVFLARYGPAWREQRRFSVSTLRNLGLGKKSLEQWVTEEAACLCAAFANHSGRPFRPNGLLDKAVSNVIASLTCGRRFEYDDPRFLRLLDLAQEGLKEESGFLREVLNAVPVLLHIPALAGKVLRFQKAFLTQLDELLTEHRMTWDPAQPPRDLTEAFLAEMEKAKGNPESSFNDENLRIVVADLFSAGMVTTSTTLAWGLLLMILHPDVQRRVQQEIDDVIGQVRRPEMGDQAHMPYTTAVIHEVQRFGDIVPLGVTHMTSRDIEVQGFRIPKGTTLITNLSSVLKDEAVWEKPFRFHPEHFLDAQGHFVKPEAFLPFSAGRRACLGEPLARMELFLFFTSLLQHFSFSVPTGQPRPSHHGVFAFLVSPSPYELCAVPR

Cytochrome P450 2D6 [21] = molecular target: T7, Cytochrome P450 2D6; remark: listed apart in the source

## O=C(O)c1ccccc1C(=O)Nc1cc(-c2ccccc2)n[nH]1
[1]
  IC50: 32.7 µM (active)
[2]
  EC50: > 100 µM (inactive)
[3]
  IC50: 10.5 µM (inactive)
[4]
  IC50: 58.5 µM (active)

## Nc1ccc2nonc2c1[N+](=O)[O-]
ORF 73
  AC50: 8.03 µM (active)
[5]
  IC50: 0.248 µM (active)
Protein Rev
  IC50: 0.69 µM (active)
[6]
  AC50: 7.95 µM (active)
Keap1/Nrf2
  AC50: 7.99 µM (active)

## O=C(O)CCN1C(=O)/C(=C2\C(=O)N(Cc3ccccc3Cl)c3ccccc32)SC1=S
[7]
  IC50: < 1.23 µM (inactive)
[8]
  IC50: > 50 µM (inactive)
[9]
  IC50: 3.2 µM (active)
[10]
  IC50: 2.88 µM (active)
[11]
  IC50: > 100 µM (not active)
[12]
  IC50: 9.81 µM (active)
NS3
  IC50: 3.06 µM (active)
[13]
  IC50: 30.9 µM (active)
[14]
  IC50: 1.91 µM (active)
[15]
  IC50: 2.03 µM (active)
[16]
  IC50: 0.549 µM (active)

## O=C(Nc1nnc(-c2ccco2)o1)c1ccc(N2C(=O)CCC2=O)cc1
[17]
  AC50: 126 µM (active)
[18]
  AC50: 14.7 µM (active)
[19]
  AC50: 13.9 µM (active)

## CC(C)(C)c1o[nH]c(=O)c1C[C@H](N)C(=O)O
Cytochrome P450 2D6 [20]
  AC50: inconclusive
Cytochrome P450 2D6 [21]
  AC50: 1.58 µM (inconclusive)
